From patent US8791118B2, “Pyridopyrazines as highly selective ras-Raf-Mek-Erk signal transduction pathway inhibitors” (Aeterna Zentaris GmbH, priority 2011, dated 2014)

| Structure (SMILES) | melting point |
| --- | --- |
| COc1cc(Nc2cnc3ccc(NC(=O)NCCCCc4ccccc4)nc3n2)cc(O)c1OC [Compound 141, 1-[3-(3-Hydroxy-4,5-dimethoxy-phenylamino)-pyrido[2,3-b]pyrazin-6-yl]-3-(4-phenyl-butyl)-urea] | 136 to 139 °C |
| CCOC(=O)Oc1ccc(-c2cnc3ccc(NC(=O)NCCCCc4ccccc4)nc3n2)cc1 [Compound 132, Carbonic acid ethyl ester 4-{6-[3-(4-phenyl-butyl)-ureido]-pyrido[2,3-b]pyrazin-3-yl}-phenyl ester] | 212 °C |
| O=C(NCCCCc1ccccc1)Nc1ccc2ncc(-c3cc(Cl)c(O)c(Cl)c3)nc2n1 [Compound 103, 1-[3-(3,5-Dichloro-4-hydroxy-phenyl)-pyrido[2,3-b]pyrazin-6-yl]-3-(4-phenyl-butyl)-urea] | 271 to 273 °C |
| COc1ccc(-c2cnc3ccc(NC(=O)NCCCCc4ccccc4)nc3n2)cc1 [Compound 118, 1-[3-(4-Methoxy-phenyl)-pyrido[2,3-b]pyrazin-6-yl]-3-(4-phenyl-butyl)-urea] | 200 to 203 °C |
| N#Cc1cccc(-c2cnc3ccc(NC(=O)NCCCCc4ccccc4)nc3n2)c1 [Compound 138, 1-[3-(3-Cyano-phenyl)-pyrido[2,3-b]pyrazin-6-yl]-3-(4-phenyl-butyl)-urea] | 237 to 240 °C |
| Cl.O=C(NCCCCc1ccccc1)Nc1ccc2ncc(N3CCNCC3)nc2n1 | 209 to 211 °C |
| C[C@H](CCCc1ccccc1)NC(=O)Nc1ccc2ncc(N3CCN(C)CC3)nc2n1 [Compound 153, 1-((R)-1-Methyl-4-phenyl-butyl)-3-[3-(4-methyl-piperazin-1-yl)-pyrido[2,3-b]pyrazin-6-yl]-urea] | 172 to 175 °C |
| O=C(NCCCCc1ccccc1)Nc1ccc2ncc(-c3ccoc3)nc2n1 [Compound 152, 1-(3-Furan-3-yl-pyrido[2,3-b]pyrazin-6-yl)-3-(4-phenyl-butyl)-urea] | 212 to 216 °C |
| O=C(NCCCCc1ccccc1)Nc1ccc2ncc(-c3ccc4nc[nH]c4c3)nc2n1 [Compound 94, 1-[3-(3H-Benzoimidazol-5-yl)-pyrido[2,3-b]pyrazin-6-yl]-3-(4-phenyl-butyl)-urea] | 226 °C |
| Cn1cc(-c2cnc3ccc(NC(=O)NCCCCc4ccc(F)cc4)nc3n2)cn1 [Compound 99, 1-[4-(4-Fluoro-phenyl)-butyl]-3-[3-(1-methyl-1H-pyrazol-4-yl)-pyrido[2,3-b]pyrazin-6-yl]-urea] | 197 to 200 °C |
| COc1ccc(-c2cnc3ccc(NC(=O)NCCCCc4ccccc4)nc3n2)c(OC)c1OC [Compound 92, 1-(4-Phenyl-butyl)-3-[3-(2,3,4-trimethoxy-phenyl)-pyrido[2,3-b]pyrazin-6-yl]-urea] | 135 to 138 °C |
| C[C@H](CCCc1ccccc1)NC(=O)Nc1ccc2ncc(-c3ccoc3)nc2n1 [Compound 149, 1-(3-Furan-3-yl-pyrido[2,3-b]pyrazin-6-yl)-3-((R)-1-methyl-4-phenyl-butyl)-urea] | 218 to 220 °C |
| COc1ccc(-c2cnc3ccc(NC(=O)N[C@H](C)CCCc4ccccc4)nc3n2)cc1OC [Compound 98, 1-[3-(3,4-Dimethoxy-phenyl)-pyrido[2,3-b]pyrazin-6-yl]-3-((R)-1-methyl-4-phenyl-butyl)-urea] | 195 to 197 °C |
| CN1CCN(c2cnc3ccc(NC(=O)NCCCCc4ccccc4)nc3n2)CC1 [Compound 93, 1-[3-(4-Methyl-piperazin-1-yl)-pyrido[2,3-b]pyrazin-6-yl]-3-(4-phenyl-butyl)-urea] | 181 to 183 °C |
| O=C(NCCCCc1ccccc1)Nc1ccc2ncc(-c3ccc(CO)cc3)nc2n1 [Compound 182, 1-[3-(4-Hydroxymethyl-phenyl)-pyrido[2,3-b]pyrazin-6-yl]-3-(4-phenyl-butyl)-urea] | 213 to 215 °C |
| O=C(NCCCCc1ccccc1)Nc1ccc2ncc(-c3ccncc3)nc2n1 [Compound 184, 1-(4-Phenyl-butyl)-3-(3-pyridin-4-yl-pyrido[2,3-b]pyrazin-6-yl)-urea] | 219 to 222 °C |
| COc1ccc(-c2cnc3ccc(NC(=O)NCCCCc4ccccc4)nc3n2)cc1O [Compound 151, 1-[3-(3-Hydroxy-4-methoxy-phenyl)-pyrido[2,3-b]pyrazin-6-yl]-3-(4-phenyl-butyl)-urea] | 230 to 232 °C |
| Cn1cc(-c2cnc3ccc(NC(=O)NCC4CCc5ccccc5C4)nc3n2)cn1 (stereo not shown) [Compound 111, 1-[3-(1-Methyl-1H-pyrazol-4-yl)-pyrido[2,3-b]pyrazin-6-yl]-3-(1,2,3,4-tetrahydro-naphthalen-2-ylmethyl)-urea] | 230 to 233 °C |
| COc1ncccc1-c1cnc2ccc(NC(=O)NCCCCc3ccccc3)nc2n1 [Compound 146, 1-[3-(2-Methoxy-pyridin-3-yl)-pyrido[2,3-b]pyrazin-6-yl]-3-(4-phenyl-butyl)-urea] | 194 to 197 °C |
| O=C(NCCCCc1ccccc1)Nc1ccc2ncc(-c3ccccc3O)nc2n1 [Compound 133, 1-[3-(2-Hydroxy-phenyl)-pyrido[2,3-b]pyrazin-6-yl]-3-(4-phenyl-butyl)-urea] | 247 to 248 °C |

| Structure (SMILES) | melting point |
| --- | --- |
| C[C@H](CCCc1ccccc1)NC(=O)Nc1ccc2ncc(-c3ccc(O)c(F)c3)nc2n1 [Compound 185, 1-[3-(3-Fluoro-4-hydroxy-phenyl)-pyrido[2,3-b]pyrazin-6-yl]-3-((R)-1-methyl-4-phenyl-butyl)-urea] | 220 to 222 °C |
| C[C@H](CCCc1ccccc1)NC(=O)Nc1ccc2ncc(-c3ccc(O)c(Cl)c3)nc2n1 [Compound 129, 1-[3-(3-Chloro-4-hydroxy-phenyl)-pyrido[2,3-b]pyrazin-6-yl]-3-((R)-1-methyl-4-phenyl-butyl)-urea] | 225 to 228 °C |
| Nc1cccc(-c2cnc3ccc(NC(=O)NCCCCc4ccccc4)nc3n2)c1 [Compound 95, 1-[3-(3-Amino-phenyl)-pyrido[2,3-b]pyrazin-6-yl]-3-(4-phenyl-butyl)-urea] | 200 to 203 °C |
| COc1ccc(CCCCNC(=O)Nc2ccc3ncc(-c4cnn(C)c4)nc3n2)cc1 [Compound 115, 1-[4-(4-Methoxy-phenyl)-butyl]-3-[3-(1-methyl-1H-pyrazol-4-yl)-pyrido[2,3-b]pyrazin-6-yl]-urea] | 195 to 196 °C |
| Nc1ccccc1-c1cnc2ccc(NC(=O)NCCCCc3ccccc3)nc2n1 [Compound 130, 1-[3-(2-Amino-phenyl)-pyrido[2,3-b]pyrazin-6-yl]-3-(4-phenyl-butyl)-urea] | 190 to 191 °C |
| O=C(NCCCCc1ccccc1)Nc1ccc2ncc(-c3ccc(O)c(Cl)c3)nc2n1 [Compound 186, 1-[3-(3-Chloro-4-hydroxy-phenyl)-pyrido[2,3-b]pyrazin-6-yl]-3-(4-phenyl-butyl)-urea] | 241 to 243 °C |
| C[C@H](CCCc1ccccc1)NC(=O)Nc1ccc2ncc(-c3cccnc3)nc2n1 [Compound 150, 1-((R)-1-Methyl-4-phenyl-butyl)-3-(3-pyridin-3-yl-pyrido[2,3-b]pyrazin-6-yl)-urea] | 218 to 220 °C |
| CCCNc1cnc2ccc(NC(=O)NCCCCc3ccccc3)nc2n1 [Compound 119, 1-(4-Phenyl-butyl)-3-(3-propylamino-pyrido[2,3-b]pyrazin-6-yl)-urea] | 118 to 120 °C |
| O=C(NCCCCc1ccccc1)Nc1ccc2ncc(-c3cccc(O)c3)nc2n1 [Compound 104, 1-[3-(3-Hydroxy-phenyl)-pyrido[2,3-b]pyrazin-6-yl]-3-(4-phenyl-butyl)-urea] | 226 to 228 °C |
| O=C(NCCCCc1ccccc1)Nc1ccc2ncc(-c3ccc(O)c(Br)c3)nc2n1 [Compound 109, 1-[3-(3-Bromo-4-hydroxy-phenyl)-pyrido[2,3-b]pyrazin-6-yl]-3-(4-phenyl-butyl)-urea] | 238 to 241 °C |
| COc1ccc(-c2cnc3ccc(NC(=O)N[C@H](C)CCCc4ccccc4)nc3n2)cc1O [Compound 148, 1-[3-(3-Hydroxy-4-methoxy-phenyl)-pyrido[2,3-b]pyrazin-6-yl]-3-((R)-1-methyl-4-phenyl-butyl)-urea] | 196 to 198 °C |
| CCOc1ccccc1-c1cnc2ccc(NC(=O)NCCCCc3ccccc3)nc2n1 [Compound 102, 1-[3-(2-Ethoxy-phenyl)-pyrido[2,3-b]pyrazin-6-yl]-3-(4-phenyl-butyl)-urea] | 173 to 175 °C |
| O=C(NCCCCc1ccccc1)Nc1ccc2ncc(-c3ccc(F)cc3O)nc2n1 [Compound 144, 1-[3-(4-Fluoro-2-hydroxy-phenyl)-pyrido[2,3-b]pyrazin-6-yl]-3-(4-phenyl-butyl)-urea] | 248 to 249 °C |
| CSc1ccc(-c2cnc3ccc(NC(=O)NCCCCc4ccccc4)nc3n2)cc1 [Compound 137, 1-[3-(4-Methylsulfanyl-phenyl)-pyrido[2,3-b]pyrazin-6-yl]-3-(4-phenyl-butyl)-urea] | 227 to 230 °C |
| Cc1ccc(CCCCNC(=O)Nc2ccc3ncc(-c4cnn(C)c4)nc3n2)cc1 [Compound 97, 1-[3-(1-Methyl-1H-pyrazol-4-yl)-pyrido[2,3-b]pyrazin-6-yl]-3-(4-p-tolyl-butyl)-urea] | 202 to 204 °C |
| Cc1c(-c2cnc3ccc(NC(=O)NCCCCc4ccccc4)nc3n2)cnn1-c1ccccc1 [Compound 113, 1-[3-(5-Methyl-1-phenyl-1H-pyrazol-4-yl)-pyrido[2,3-b]pyrazin-6-yl]-3-(4-phenyl-butyl)-urea] | 224 to 226 °C |
| Cc1ccccc1-c1cnc2ccc(NC(=O)NCCCCc3ccccc3)nc2n1 [Compound 120, 1-(4-Phenyl-butyl)-3-(3-o-tolyl-pyrido[2,3-b]pyrazin-6-yl)-urea] | 158 to 160 °C |
| Cc1n[nH]c(C)c1-c1cnc2ccc(NC(=O)NCCCCc3ccccc3)nc2n1 [Compound 91, 1-[3-(3,5-Dimethyl-1H-pyrazol-4-yl)-pyrido[2,3-b]pyrazin-6-yl]-3-(4-phenyl-butyl)-urea] | 299 to 300 °C |
| O=C(NCCCCc1ccccc1)Nc1ccc2ncc(-c3ccn[nH]3)nc2n1 [Compound 105, 1-(4-Phenyl-butyl)-3-[3-(2H-pyrazol-3-yl)-pyrido[2,3-b]pyrazin-6-yl]-urea] | 280 °C (dec.) |
| CC(=O)Oc1ccc(-c2cnc3ccc(NC(=O)NCCCCc4ccccc4)nc3n2)cc1 [Compound 107, Acetic acid 4-{6-[3-(4-phenyl-butyl)-ureido]-pyrido[2,3-b]pyrazin-3-yl}-phenyl ester] | 220 °C |
